Each substance was assayed on Proteus vulgaris (assay: MIC against Gram-negative bacteria: Proteus vulgaris). Details: Proteus vulgaris; 96-well plate, 5×10^5 CFU/mL, 37° C., 10 h.
Format: cell-based
Method in brief: (§1)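 Broth microdilution, LB medium, final inoculum 5×10^5 CFU/mL from McFarland 0.5 cultures. Recombinant human EGF domain proteins tested in two-fold steps, n=3. MIC: lowest concentration, no growth.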

Substance	MIC (μg/mL) P. vulgaris	MIC against P. vulgaris
PRT126 (IIDRCVPNHCEHGGKCSQTWDSFKCTCDETGYSGATCH; listed as Homo sapiens)	12.5 µg/mL	–
PRT1199 (AFCEEGCRYGGTCVAPNKCVCPSGFTGSHCE; listed as Homo sapiens)	–	50 µg/mL
PRT91 (DTNECIQFPFVCPRDKPVCVNTYGSYRCRTNKKCSRGYEPNEDGTAC; listed as Homo sapiens)	50 µg/mL	–
PRT1214 (GRENCTFAPCLEGGTCILSPKGASCNCPHPYTGDRCE; listed as Homo sapiens)	–	12.5 µg/mL
PRT1239 (TIPICEGPDACQKDEVCVKPGLCRCKPGFFGAHCS; listed as Homo sapiens)	–	50 µg/mL
PRT1205 (EHDECITNQHNCDENALCFNTVGGHNCVCKPGYTGNGTTCK; listed as Homo sapiens)	–	12.5 µg/mL
PRT25 (PGVCRNGGTCTDAPNGGFRCQCPAGGAFEGPRCE; listed as Homo sapiens)	25 µg/mL	–

The substances below were run on E. coli BL21 (assay: MIC against Gram-negative bacteria: E. coli BL21). Details: E. coli BL21; 96-well plate, 5×10^5 CFU/mL, 37° C., 10 h.
Format: cell-based
Method in brief: as §1

Substance	MIC (μg/mL) E. coli BL21	MIC against E. coli BL21
PRT126 (IIDRCVPNHCEHGGKCSQTWDSFKCTCDETGYSGATCH; listed as Homo sapiens)	50 µg/mL	–
PRT1199 (AFCEEGCRYGGTCVAPNKCVCPSGFTGSHCE; listed as Homo sapiens)	–	12.5 µg/mL
PRT91 (DTNECIQFPFVCPRDKPVCVNTYGSYRCRTNKKCSRGYEPNEDGTAC; listed as Homo sapiens)	12.5 µg/mL	–
PRT1214 (GRENCTFAPCLEGGTCILSPKGASCNCPHPYTGDRCE; listed as Homo sapiens)	–	12.5 µg/mL
PRT1239 (TIPICEGPDACQKDEVCVKPGLCRCKPGFFGAHCS; listed as Homo sapiens)	–	12.5 µg/mL
PRT1205 (EHDECITNQHNCDENALCFNTVGGHNCVCKPGYTGNGTTCK; listed as Homo sapiens)	–	12.5 µg/mL
PRT25 (PGVCRNGGTCTDAPNGGFRCQCPAGGAFEGPRCE; listed as Homo sapiens)	50 µg/mL	–

What follows are substances tested on E. coli DH5α (assay: Antibacterial activity: MIC and growth curve against E. coli DH5α in 96-well plate). Details: minimal inhibitory concentration against E. coli DH5α; 96-well plate, 5×10^5 CFU/mL, 37° C., judged after 8 h.
Format: cell-based
Method in brief: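 Log-phase bacteria (OD600 ~0.5) resuspended in LB at 5×10^5 CFU/mL, exposed to recombinant protein at 50, 25, 12.5 μg/mL final in triplicate, 37 °C shaking at 175 rpm. OD600 read every 30 min; MIC is lowest concentration showing no growth.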

Substance	MIC
PRT126 (IIDRCVPNHCEHGGKCSQTWDSFKCTCDETGYSGATCH; listed as Homo sapiens)	12.5 µg/mL
PRT1199 (AFCEEGCRYGGTCVAPNKCVCPSGFTGSHCE; listed as Homo sapiens)	50 µg/mL
PRT91 (DTNECIQFPFVCPRDKPVCVNTYGSYRCRTNKKCSRGYEPNEDGTAC; listed as Homo sapiens)	12.5 µg/mL
PRT1214 (GRENCTFAPCLEGGTCILSPKGASCNCPHPYTGDRCE; listed as Homo sapiens)	25 µg/mL
PRT1239 (TIPICEGPDACQKDEVCVKPGLCRCKPGFFGAHCS; listed as Homo sapiens)	25 µg/mL
PRT1205 (EHDECITNQHNCDENALCFNTVGGHNCVCKPGYTGNGTTCK; listed as Homo sapiens)	25 µg/mL
PRT25 (PGVCRNGGTCTDAPNGGFRCQCPAGGAFEGPRCE; listed as Homo sapiens)	50 µg/mL

What follows are substances tested on Citrobacter diversus (assay: MIC against Gram-negative bacteria: Citrobacter diversus). Details: Citrobacter diversus; 96-well plate, 5×10^5 CFU/mL, 37° C., 10 h.
Format: cell-based
Method in brief: as §1

Substance	MIC (μg/mL) C. diversus	MIC against C. diversus
PRT126 (IIDRCVPNHCEHGGKCSQTWDSFKCTCDETGYSGATCH; listed as Homo sapiens)	12.5 µg/mL	–
PRT1199 (AFCEEGCRYGGTCVAPNKCVCPSGFTGSHCE; listed as Homo sapiens)	–	25 µg/mL
PRT91 (DTNECIQFPFVCPRDKPVCVNTYGSYRCRTNKKCSRGYEPNEDGTAC; listed as Homo sapiens)	12.5 µg/mL	–
PRT1214 (GRENCTFAPCLEGGTCILSPKGASCNCPHPYTGDRCE; listed as Homo sapiens)	–	12.5 µg/mL
PRT1239 (TIPICEGPDACQKDEVCVKPGLCRCKPGFFGAHCS; listed as Homo sapiens)	–	50 µg/mL
PRT1205 (EHDECITNQHNCDENALCFNTVGGHNCVCKPGYTGNGTTCK; listed as Homo sapiens)	–	12.5 µg/mL
PRT25 (PGVCRNGGTCTDAPNGGFRCQCPAGGAFEGPRCE; listed as Homo sapiens)	100 µg/mL	–

These substances were tested on Pseudomonas aeruginosa (assay: MIC against Gram-negative bacteria: Pseudomonas aeruginosa). Details: Pseudomonas aeruginosa; 96-well plate, 5×10^5 CFU/mL, 37° C., 10 h.
Format: cell-based
Method in brief: as §1

Substance	MIC (μg/mL) P. aeruginosa	MIC against P. aeruginosa
PRT126 (IIDRCVPNHCEHGGKCSQTWDSFKCTCDETGYSGATCH; listed as Homo sapiens)	12.5 µg/mL	–
PRT1199 (AFCEEGCRYGGTCVAPNKCVCPSGFTGSHCE; listed as Homo sapiens)	–	50 µg/mL
PRT91 (DTNECIQFPFVCPRDKPVCVNTYGSYRCRTNKKCSRGYEPNEDGTAC; listed as Homo sapiens)	12.5 µg/mL	–
PRT1214 (GRENCTFAPCLEGGTCILSPKGASCNCPHPYTGDRCE; listed as Homo sapiens)	–	50 µg/mL
PRT1239 (TIPICEGPDACQKDEVCVKPGLCRCKPGFFGAHCS; listed as Homo sapiens)	–	50 µg/mL
PRT1205 (EHDECITNQHNCDENALCFNTVGGHNCVCKPGYTGNGTTCK; listed as Homo sapiens)	–	50 µg/mL
PRT25 (PGVCRNGGTCTDAPNGGFRCQCPAGGAFEGPRCE; listed as Homo sapiens)	25 µg/mL	–

Each substance was assayed on Klebsiella pneumonia (assay: MIC against Gram-negative bacteria: Klebsiella pneumonia). Details: Klebsiella pneumonia; 96-well plate, 5×10^5 CFU/mL, 37° C., 10 h.
Format: cell-based
Method in brief: as §1

Substance	MIC (μg/mL) K. pneumonia	MIC against K. pneumonia
PRT126 (IIDRCVPNHCEHGGKCSQTWDSFKCTCDETGYSGATCH; listed as Homo sapiens)	50 µg/mL	–
PRT1199 (AFCEEGCRYGGTCVAPNKCVCPSGFTGSHCE; listed as Homo sapiens)	–	12.5 µg/mL
PRT91 (DTNECIQFPFVCPRDKPVCVNTYGSYRCRTNKKCSRGYEPNEDGTAC; listed as Homo sapiens)	12.5 µg/mL	–
PRT1214 (GRENCTFAPCLEGGTCILSPKGASCNCPHPYTGDRCE; listed as Homo sapiens)	–	25 µg/mL
PRT1239 (TIPICEGPDACQKDEVCVKPGLCRCKPGFFGAHCS; listed as Homo sapiens)	–	12.5 µg/mL
PRT1205 (EHDECITNQHNCDENALCFNTVGGHNCVCKPGYTGNGTTCK; listed as Homo sapiens)	–	25 µg/mL
PRT25 (PGVCRNGGTCTDAPNGGFRCQCPAGGAFEGPRCE; listed as Homo sapiens)	50 µg/mL	–

What follows are substances tested on Moraxella catarrhalis (assay: MIC against Gram-negative bacteria: Moraxella catarrhalis). Details: Moraxella catarrhalis; 96-well plate, 5×10^5 CFU/mL, 37° C., 10 h.
Format: cell-based
Method in brief: as §1

Substance	MIC (μg/mL) M. catarrhalis	MIC against M. catarrhalis
PRT126 (IIDRCVPNHCEHGGKCSQTWDSFKCTCDETGYSGATCH; listed as Homo sapiens)	100 µg/mL	–
PRT1199 (AFCEEGCRYGGTCVAPNKCVCPSGFTGSHCE; listed as Homo sapiens)	–	12.5 µg/mL
PRT91 (DTNECIQFPFVCPRDKPVCVNTYGSYRCRTNKKCSRGYEPNEDGTAC; listed as Homo sapiens)	25 µg/mL	–
PRT1214 (GRENCTFAPCLEGGTCILSPKGASCNCPHPYTGDRCE; listed as Homo sapiens)	–	25 µg/mL
PRT1239 (TIPICEGPDACQKDEVCVKPGLCRCKPGFFGAHCS; listed as Homo sapiens)	–	12.5 µg/mL
PRT1205 (EHDECITNQHNCDENALCFNTVGGHNCVCKPGYTGNGTTCK; listed as Homo sapiens)	–	25 µg/mL
PRT25 (PGVCRNGGTCTDAPNGGFRCQCPAGGAFEGPRCE; listed as Homo sapiens)	25 µg/mL	–

These substances were tested on Enterobacter cloacae (assay: MIC against Gram-negative bacteria: Enterobacter cloacae). Details: Enterobacter cloacae; 96-well plate, 5×10^5 CFU/mL, 37° C., 10 h.
Format: cell-based
Method in brief: as §1

Substance	MIC (μg/mL) E. cloacae	MIC against E. cloacae
PRT126 (IIDRCVPNHCEHGGKCSQTWDSFKCTCDETGYSGATCH; listed as Homo sapiens)	12.5 µg/mL	–
PRT1199 (AFCEEGCRYGGTCVAPNKCVCPSGFTGSHCE; listed as Homo sapiens)	–	50 µg/mL
PRT91 (DTNECIQFPFVCPRDKPVCVNTYGSYRCRTNKKCSRGYEPNEDGTAC; listed as Homo sapiens)	12.5 µg/mL	–
PRT1214 (GRENCTFAPCLEGGTCILSPKGASCNCPHPYTGDRCE; listed as Homo sapiens)	–	12.5 µg/mL
PRT1239 (TIPICEGPDACQKDEVCVKPGLCRCKPGFFGAHCS; listed as Homo sapiens)	–	50 µg/mL
PRT1205 (EHDECITNQHNCDENALCFNTVGGHNCVCKPGYTGNGTTCK; listed as Homo sapiens)	–	12.5 µg/mL
PRT25 (PGVCRNGGTCTDAPNGGFRCQCPAGGAFEGPRCE; listed as Homo sapiens)	25 µg/mL	–

These substances were tested on Proteus mirabilis (assay: MIC against Gram-negative bacteria: Proteus mirabilis). Details: Proteus mirabilis; 96-well plate, 5×10^5 CFU/mL, 37° C., 10 h.
Format: cell-based
Method in brief: as §1

Substance	MIC (μg/mL) P. mirabilis	MIC against P. mirabilis
PRT126 (IIDRCVPNHCEHGGKCSQTWDSFKCTCDETGYSGATCH; listed as Homo sapiens)	25 µg/mL	–
PRT1199 (AFCEEGCRYGGTCVAPNKCVCPSGFTGSHCE; listed as Homo sapiens)	–	25 µg/mL
PRT91 (DTNECIQFPFVCPRDKPVCVNTYGSYRCRTNKKCSRGYEPNEDGTAC; listed as Homo sapiens)	12.5 µg/mL	–
PRT1214 (GRENCTFAPCLEGGTCILSPKGASCNCPHPYTGDRCE; listed as Homo sapiens)	–	50 µg/mL
PRT1239 (TIPICEGPDACQKDEVCVKPGLCRCKPGFFGAHCS; listed as Homo sapiens)	–	25 µg/mL
PRT1205 (EHDECITNQHNCDENALCFNTVGGHNCVCKPGYTGNGTTCK; listed as Homo sapiens)	–	50 µg/mL
PRT25 (PGVCRNGGTCTDAPNGGFRCQCPAGGAFEGPRCE; listed as Homo sapiens)	12.5 µg/mL	–

What follows are substances tested on Aeromonas hydrophila (assay: MIC against Gram-negative bacteria: Aeromonas hydrophila). Details: Aeromonas hydrophila; 96-well plate, 5×10^5 CFU/mL, 37° C., 10 h.
Format: cell-based
Method in brief: as §1

Substance	MIC (μg/mL) A. hydrophila	MIC against A. hydrophila
PRT126 (IIDRCVPNHCEHGGKCSQTWDSFKCTCDETGYSGATCH; listed as Homo sapiens)	12.5 µg/mL	–
PRT1199 (AFCEEGCRYGGTCVAPNKCVCPSGFTGSHCE; listed as Homo sapiens)	–	25 µg/mL
PRT91 (DTNECIQFPFVCPRDKPVCVNTYGSYRCRTNKKCSRGYEPNEDGTAC; listed as Homo sapiens)	25 µg/mL	–
PRT1214 (GRENCTFAPCLEGGTCILSPKGASCNCPHPYTGDRCE; listed as Homo sapiens)	–	50 µg/mL
PRT1239 (TIPICEGPDACQKDEVCVKPGLCRCKPGFFGAHCS; listed as Homo sapiens)	–	12.5 µg/mL
PRT1205 (EHDECITNQHNCDENALCFNTVGGHNCVCKPGYTGNGTTCK; listed as Homo sapiens)	–	50 µg/mL
PRT25 (PGVCRNGGTCTDAPNGGFRCQCPAGGAFEGPRCE; listed as Homo sapiens)	12.5 µg/mL	–

These substances were tested on Serratia marcescens (assay: MIC against Gram-negative bacteria: Serratia marcescens). Details: Serratia marcescens; 96-well plate, 5×10^5 CFU/mL, 37° C., 10 h.
Format: cell-based
Method in brief: as §1

Substance	MIC (μg/mL) S. marcescens	MIC against S. marcescens
PRT126 (IIDRCVPNHCEHGGKCSQTWDSFKCTCDETGYSGATCH; listed as Homo sapiens)	25 µg/mL	–
PRT1199 (AFCEEGCRYGGTCVAPNKCVCPSGFTGSHCE; listed as Homo sapiens)	–	25 µg/mL
PRT91 (DTNECIQFPFVCPRDKPVCVNTYGSYRCRTNKKCSRGYEPNEDGTAC; listed as Homo sapiens)	12.5 µg/mL	–
PRT1214 (GRENCTFAPCLEGGTCILSPKGASCNCPHPYTGDRCE; listed as Homo sapiens)	–	25 µg/mL
PRT1239 (TIPICEGPDACQKDEVCVKPGLCRCKPGFFGAHCS; listed as Homo sapiens)	–	25 µg/mL
PRT1205 (EHDECITNQHNCDENALCFNTVGGHNCVCKPGYTGNGTTCK; listed as Homo sapiens)	–	25 µg/mL
PRT25 (PGVCRNGGTCTDAPNGGFRCQCPAGGAFEGPRCE; listed as Homo sapiens)	12.5 µg/mL	–

From patent US9833497B2, “Human originated EGF domain proteins and use of the same” (CHENGDU SOURCEBIO LIMITED-LIABILITY COMPANY, priority 2013, dated 2017)
